# From ChEMBL document CHEMBL1132953, “Design and synthesis of pyrrolidine-5,5-trans-lactams (5-oxo-hexahydro-pyrrolo[3,2-b]pyrroles) as novel mechanism-based inhibitors of human cytomegalovirus protease. 1. The alpha-methyl-trans-lactam template” (J Med Chem, 2000)
# Tests used:
# [1] = Tested for inhibitory activity against elastase.
# Prothrombin = Prothrombin (Homo sapiens, UniProt P00734); assay: Tested for inhibitory activity against Thrombin.
smiles,measurement,setting,value
CC(=O)OCC(=O)N1C(=O)C[C@@H]2[C@@H]1CCN2C(=O)OCc1ccccc1,IC50,[1],7.58 µM
same,IC50,Prothrombin,6.2 µM
